The record followed here is ChEMBL document CHEMBL1149295, “A combined QM/MM approach to protein--ligand interactions: polarization effects of the HIV-1 protease on selected high affinity inhibitors” (J Med Chem, 2004).

Usually Ki stands for the equilibrium dissociation constant of an inhibitor or competing ligand from its target. Low values mean tighter binding, high ones weaker binding.

The experiment is described as follows: Inhibition of HIV1 protease. Also on record: species or system Human immunodeficiency virus 1.
In turn, `CCC[C@@]1(CCc2ccccc2)CC(O)=C([C@H](CC)c2cccc(NS(=O)(=O)c3ccc(C(F)(F)F)cn3)c2)C(=O)O1` [TIPRANAVIR] yielded an inhibitory constant (Ki) of 0.008 nM.

`Nc1cccc(CN2C(=O)N(Cc3cccc(N)c3)[C@H](Cc3ccccc3)[C@H](O)[C@@H](O)[C@H]2Cc2ccccc2)c1` [MOZENAVIR] had a Ki of 0.41 nM.

With `Cc1c(O)cccc1C(=O)N[C@@H](CSc1ccccc1)[C@H](O)CN1C[C@H]2CCCC[C@H]2C[C@H]1C(=O)NC(C)(C)C` [NELFINAVIR], the affinity corresponds to a Ki of 0.28 nM.
